Earlier results, collected in patent publication US6284262A, “Compact dosage unit for buccal administration of a pharmacologically active agent” (priority 1999, dated 2001).

Assays:
[1] = system: sex hormone-binding protein; settings: plasma, adult men
[2] = system: albumin and other proteins; settings: plasma, adult men

SMILES: C[C@]12CC[C@H]3[C@@H](CCC4=CC(=O)CC[C@@]43C)[C@@H]1CC[C@@H]2O [testosterone]
- absorption after oral administration: well absorbed
- therapeutic blood levels via oral administration: not possible to achieve therapeutic blood levels
- degradation during passage through the liver and intestine (oral): quickly degraded
- testosterone bound to sex hormone-binding protein [1]: Approximately 40%
- bound to albumin and other proteins [2]: the remainder
- free, or unbound testosterone [2]: about 2%
